Measurements taken from patent US6808877B2, “Ligands for FPR class receptors that induce a host immune response to a pathogen or inhibit HIV infection” (priority 2000, dated 2004).
Read-outs that look alike come from different tables or passages of the source.

Experiments:
neutrophils = assay: Ca2+ mobilization in neutrophils (Fura-2); format: cell-based, human
Experimental: (§1) Calcium mobilization was measured by incubating 2×10^7/ml cells in loading medium (DMEM, 10% FBS) with 5 μM Fura-2 AM (Molecular Probes, Eugene, Oreg.) for 30 min at room temperature in the dark. The dye-loaded cells were washed 3 times with loading medium and resuspended in saline buffer [138 mM NaCl, 6 mM KCl, 1 mM CaCl2, 10 mM HEPES (pH 7.4), 5 mM Glucose, 0.1% BSA] at a concentration of 1×10^6/ml. The cells were then transferred into quartz cuvettes (2 ml) which were placed in a luminescence spectrometer (LS-50B, Perkin-Elmer, Beaconsfield, England). Stimulants at different concentrations were added in a volume of 20 μl to each cuvette at the indicated time points. The ratio of fluorescence at 340 and 380 nm wavelength was calculated using a FL WinLab program (Perkin-Elmer).
(§2) Calcium mobilization was assayed by incubating 2×10^7/ml of monocytes, neutrophils, FPRL1 or FPR transfectants in loading buffer containing 138 mM NaCl, 6 mM KCl, 1 mM CaCl2, 10 mM HEPES (pH 7.4), 5 mM glucose, 0.1% BSA with 5 μM Fura-2 (Sigma) at 37° C. for 30 min. The dye-loaded cells were washed and resuspended in fresh loading buffer. The cells were then transferred into quartz cuvettes (10^6 cells in 2 ml) which were placed in a luminescence spectrometer LS50 B (Perkin-Elmer Limited, Beaconsfield, England). Stimulants at different concentrations were added in a volume of 20 μl to the cuvettes at indicated time points. The ratio of fluorescence at 340 and 380 nm wavelength was calculated using the FL WinLab program (Perkin-Elmer).

monocytes [1] = assay: Ca2+ mobilization of monocytes in response to chemokines after preincubation (heterologous desensitization); format: cell-based, human; conditions: 60 min, 37° C.
Experimental: Calcium mobilization was measured by incubating monocytes (2×10^7/ml) in loading medium (DMEM, 10% FCS) with 5 μM Fura-2 AM (Molecular Probes, Eugene, Oreg.) for 30 min at room temperature in the dark. The dye-loaded cells were washed 3 times and resuspended in saline buffer (138 mM NaCl, 6 mM KCl, 1 mM CaCl2, 10 mM Hepes pH 7.4, 5 mM glucose, 0.1% BSA). The cells were then transferred into quartz cuvettes (2×10^6 cells in 2 ml) which were placed in a luminescence spectrometer (LS-50B, Perkin-Elmer, Beaconsfield, UK). Stimulants at different concentrations were added in a volume of 20 μl to each cuvette at the indicated time points. The ratio of fluorescence at 340 and 380 nm was calculated using a FL-WinLab program (Perkin Elmer). To examine the effect of fMLP, monocytes were preincubated with 10^−6 M fMLP or with medium alone for 60 min at 37° C. The cells were thoroughly washed and then were stained with Fura-2 for the calcium mobilization desensitization. The results are representative of at least three experiments performed.
as §1

monocytes [2] = assay: Ca2+ mobilization in monocytes (Fura-2); format: cell-based, human
Experimental: as §1, §2

FPRL1 = target: T1, FPRL1 (Homo sapiens, UniProt P25090); format: cell-based
T1 construct: expressed in transfected cells; host or cells: HEK 293
T1 sequence (P25090 1-351): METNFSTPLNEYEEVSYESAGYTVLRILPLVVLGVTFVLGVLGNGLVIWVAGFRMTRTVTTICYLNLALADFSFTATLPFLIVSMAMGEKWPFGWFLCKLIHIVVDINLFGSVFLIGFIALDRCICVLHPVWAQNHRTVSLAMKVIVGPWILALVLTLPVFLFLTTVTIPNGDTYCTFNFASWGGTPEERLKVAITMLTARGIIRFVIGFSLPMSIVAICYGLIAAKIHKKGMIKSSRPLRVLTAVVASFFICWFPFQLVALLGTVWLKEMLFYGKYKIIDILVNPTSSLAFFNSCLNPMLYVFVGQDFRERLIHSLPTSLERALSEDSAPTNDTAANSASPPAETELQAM

[3] = concentrations in the micromolar range
[4] = high concentration of fMLP (1 μM), V3 1.5 μM

| Compound | response to W peptide (Ca2+ flux) (neutrophils; [3]) | signaling of V3 peptide on cross-desensitization (neutrophils; [4]) | effect on W peptide-induced Ca2+ flux (neutrophils; low concentrations (nM range)) | Ca2+ flux in response to RANTES and MIP-1α after pretreatment (monocytes [1]; fMLP 10^−6 M) | response to W peptide (Ca2+ flux) (monocytes [2]; [3]) | signaling of V3 peptide on cross-desensitization (monocytes [2]; [4]) | effect on W peptide-induced Ca2+ flux (monocytes [2]; low concentrations (nM range)) | migration / chemotaxis (FPRL1) | Ca2+ mobilization (neutrophils) | cell response (Ca2+) to MCP-1 and fMLP after preincubation (monocytes [1]; 1.5 μM) | cell response (Ca2+) to RANTES and SDF-1α after preincubation (monocytes [1]; 1.5 μM) | Ca2+ mobilization (monocytes [2]) | attenuation of the cell response to chemokines including SDF-1α on sequential stimulation (monocytes [2]; V3 peptide 1.5 μM) | migration / chemotaxis (FPRL1; FPRL1/293 cells) |
| --- | --- | --- | --- | --- | --- | --- | --- | --- | --- | --- | --- | --- | --- | --- |
| CSCC[C@H](NC=O)C(=O)N[C@@H](CC(C)C)C(=O)N[C@@H](Cc1ccccc1)C(=O)O [fMLP, N-formyl-methionyl-leucyl-phenylalanine] | significantly attenuated | attenuated | limited effect | reduced Ca^2+ flux | significantly attenuated | attenuated | limited effect | failed to migrate |  |  |  |  |  |  |
| TRPNYNKRKRIHIGPGRAFYTTKNIIGTIRQAH-NH2 [V3 peptide] |  |  |  |  |  |  |  |  | mobilized Ca^2+ | minimally affected | significantly reduced | mobilized Ca^2+ | did not, however, attenuate | induced both Ca^2+ mobilization and chemotaxis |
